Measurements as given in BigSolDB 2.1.

CC(=O)N1CCN(c2ccc(OC[C@@H]3CO[C@@](Cn4ccnc4)(c4ccc(Cl)cc4Cl)O3)cc2)CC1 (racemic)
solubility (mole fraction)
Settings	293.2 K	298.2 K	303.2 K	308.2 K	313.2 K
in NMP	0.0212	0.0242	0.0271	0.0301	0.0333
in ethanol	0.00235	0.00299	0.00361	0.00438	0.00527
